Reference: the kinase profiling compilation of Christmann-Franck et al. (2016)
Where “and” joins values, the source holds several entries; their conditions need not be identical. Equal values may be shown once.

What was measured:
Experiment in all cases: radiometric filter-binding kinase assay, Kinase HotSpot
Details in all cases: compound 0.5 µM; ATP 10 µM
CAMK1D (human) = CAMK1D (human) (UniProt Q8IU85)
CAMK1G (human) = CAMK1G (human) (UniProt Q96NX5)
CAMKK2 (human) = CAMKK2 (human) (UniProt Q96RR4)
CDC42BPA (human) = CDC42BPA (human) (UniProt Q5VT25)
CDK5 CDK5R1 p35 (human) = CDK5 CDK5R1 p35 (human) (UniProt Q00535+Q15078)
CSNK2A1 (human) = CSNK2A1 (human) (UniProt P68400)
DAPK1 (human) = DAPK1 (human) (UniProt P53355)
DYRK4 (human) = DYRK4 (human) (UniProt Q9NR20)
EPHA2 (human) = EPHA2 (human) (UniProt P29317)
FGFR4 (human) = FGFR4 (human) (UniProt P22455)
GRK7 (human) = GRK7 (human) (UniProt Q8WTQ7)
HIPK2 (human) = HIPK2 (human) (UniProt Q9H2X6)
LYN (human) = LYN (human) (UniProt P07948)
MAP2K1 (human) = MAP2K1 (human) (UniProt Q02750)
MAPK12 (human) = MAPK12 (human) (UniProt P53778)
Sequence of MAPK12 (human) (P53778 whole entry, looked up): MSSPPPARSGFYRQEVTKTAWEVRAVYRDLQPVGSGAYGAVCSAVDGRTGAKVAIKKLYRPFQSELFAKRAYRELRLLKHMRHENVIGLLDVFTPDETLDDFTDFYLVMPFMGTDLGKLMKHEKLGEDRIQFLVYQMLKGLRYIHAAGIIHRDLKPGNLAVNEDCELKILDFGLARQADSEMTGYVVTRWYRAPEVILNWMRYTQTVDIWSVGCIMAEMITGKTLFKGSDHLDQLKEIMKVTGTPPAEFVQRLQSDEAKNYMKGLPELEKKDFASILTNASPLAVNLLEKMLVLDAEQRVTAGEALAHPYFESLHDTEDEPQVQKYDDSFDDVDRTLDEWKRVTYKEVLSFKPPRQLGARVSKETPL

MAPK3 (human) = MAPK3 (human) (UniProt P27361)
MET (human) = MET (human) (UniProt P08581)
MUSK (human) = MUSK (human) (UniProt O15146)
NEK2 (human) = NEK2 (human) (UniProt P51955)
NEK3 (human) = NEK3 (human) (UniProt P51956)
NTRK1 (human) = NTRK1 (human) (UniProt P04629)
Sequence of NTRK1 (human) (P04629 whole entry, looked up): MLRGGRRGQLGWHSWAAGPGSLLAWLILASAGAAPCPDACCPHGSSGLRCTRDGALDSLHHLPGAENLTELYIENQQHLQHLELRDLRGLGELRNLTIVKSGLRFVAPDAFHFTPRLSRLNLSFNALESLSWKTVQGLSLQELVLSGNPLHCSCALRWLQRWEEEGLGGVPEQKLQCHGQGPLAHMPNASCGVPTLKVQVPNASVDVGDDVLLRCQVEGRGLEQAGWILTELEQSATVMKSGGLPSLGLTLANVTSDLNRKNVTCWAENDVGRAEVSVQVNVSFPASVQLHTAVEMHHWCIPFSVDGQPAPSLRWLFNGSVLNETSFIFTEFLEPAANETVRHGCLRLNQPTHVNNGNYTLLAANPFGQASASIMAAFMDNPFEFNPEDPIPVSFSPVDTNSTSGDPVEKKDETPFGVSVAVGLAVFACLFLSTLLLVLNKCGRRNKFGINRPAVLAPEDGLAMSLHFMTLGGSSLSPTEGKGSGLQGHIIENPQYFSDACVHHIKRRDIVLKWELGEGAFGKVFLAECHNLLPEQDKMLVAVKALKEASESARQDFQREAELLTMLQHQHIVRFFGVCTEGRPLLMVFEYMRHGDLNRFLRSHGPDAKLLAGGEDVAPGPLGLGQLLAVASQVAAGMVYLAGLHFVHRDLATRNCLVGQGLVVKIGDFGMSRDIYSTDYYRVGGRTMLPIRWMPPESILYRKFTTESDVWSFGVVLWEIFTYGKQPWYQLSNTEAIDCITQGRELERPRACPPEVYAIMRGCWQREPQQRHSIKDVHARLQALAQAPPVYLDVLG

PAK6 (human) = PAK6 (human) (UniProt Q9NQU5)
PASK (human) = PASK (human) (UniProt Q96RG2)
PHKG1 (human) = PHKG1 (human) (UniProt Q16816)
PKN2 (human) = PKN2 (human) (UniProt Q16513)
PLK3 (human) = PLK3 (human) (UniProt Q9H4B4)
Sequence of PLK3 (human) (Q9H4B4 whole entry, looked up): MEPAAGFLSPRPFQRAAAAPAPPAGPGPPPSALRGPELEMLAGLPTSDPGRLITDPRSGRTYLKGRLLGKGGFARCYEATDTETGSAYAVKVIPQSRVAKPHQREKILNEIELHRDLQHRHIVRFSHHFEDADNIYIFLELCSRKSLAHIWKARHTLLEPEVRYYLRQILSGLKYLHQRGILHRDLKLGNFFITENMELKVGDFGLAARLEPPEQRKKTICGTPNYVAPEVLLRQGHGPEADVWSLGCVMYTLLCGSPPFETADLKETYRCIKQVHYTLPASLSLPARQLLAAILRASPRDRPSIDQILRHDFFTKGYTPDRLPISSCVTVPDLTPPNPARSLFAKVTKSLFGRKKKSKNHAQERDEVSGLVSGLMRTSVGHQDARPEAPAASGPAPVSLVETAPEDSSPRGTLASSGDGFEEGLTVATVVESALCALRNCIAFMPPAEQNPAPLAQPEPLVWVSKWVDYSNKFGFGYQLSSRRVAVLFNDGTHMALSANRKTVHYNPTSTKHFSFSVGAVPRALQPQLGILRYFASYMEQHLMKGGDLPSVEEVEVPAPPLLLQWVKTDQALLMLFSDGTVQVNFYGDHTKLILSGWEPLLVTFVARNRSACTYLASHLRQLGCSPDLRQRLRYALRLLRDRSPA

PRKCE (human) = PRKCE (human) (UniProt Q02156)
PRKD2 (human) = PRKD2 (human) (UniProt Q9BZL6)
PTK6 (human) = PTK6 (human) (UniProt Q13882)
RPS6KA3 KD1 KD2 (human) = RPS6KA3 KD1 KD2 (human) (UniProt P51812)
SGK3 (human) = SGK3 (human) (UniProt Q96BR1)
SIK2 (human) = SIK2 (human) (UniProt Q9H0K1)
SRC (human) = SRC (human) (UniProt P12931)
SRPK2 (human) = SRPK2 (human) (UniProt P78362)
Sequence of SRPK2 (human) (P78362 whole entry, looked up): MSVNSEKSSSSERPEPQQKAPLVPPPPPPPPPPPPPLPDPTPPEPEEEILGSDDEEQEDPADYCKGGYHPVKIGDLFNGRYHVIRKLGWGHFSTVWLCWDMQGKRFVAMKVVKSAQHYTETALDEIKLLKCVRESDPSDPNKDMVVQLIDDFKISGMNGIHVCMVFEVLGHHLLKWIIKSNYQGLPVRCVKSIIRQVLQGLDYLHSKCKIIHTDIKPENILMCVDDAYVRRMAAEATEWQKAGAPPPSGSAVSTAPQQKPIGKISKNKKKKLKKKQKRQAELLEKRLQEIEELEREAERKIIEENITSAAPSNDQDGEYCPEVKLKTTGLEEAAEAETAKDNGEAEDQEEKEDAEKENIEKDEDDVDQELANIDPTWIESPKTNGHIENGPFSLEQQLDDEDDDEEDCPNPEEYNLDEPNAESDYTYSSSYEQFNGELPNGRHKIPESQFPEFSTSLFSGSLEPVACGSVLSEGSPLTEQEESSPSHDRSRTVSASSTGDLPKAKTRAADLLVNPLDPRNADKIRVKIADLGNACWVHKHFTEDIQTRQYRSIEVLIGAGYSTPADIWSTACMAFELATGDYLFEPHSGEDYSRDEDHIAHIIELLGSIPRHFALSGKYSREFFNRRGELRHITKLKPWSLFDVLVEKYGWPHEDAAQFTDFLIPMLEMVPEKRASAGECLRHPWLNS

STK10 (human) = STK10 (human) (UniProt O94804)
TBK1 (human) = TBK1 (human) (UniProt Q9UHD2)
TGFBR2 (human) = TGFBR2 (human) (UniProt P37173)
Sequence of TGFBR2 (human) (P37173 whole entry, looked up): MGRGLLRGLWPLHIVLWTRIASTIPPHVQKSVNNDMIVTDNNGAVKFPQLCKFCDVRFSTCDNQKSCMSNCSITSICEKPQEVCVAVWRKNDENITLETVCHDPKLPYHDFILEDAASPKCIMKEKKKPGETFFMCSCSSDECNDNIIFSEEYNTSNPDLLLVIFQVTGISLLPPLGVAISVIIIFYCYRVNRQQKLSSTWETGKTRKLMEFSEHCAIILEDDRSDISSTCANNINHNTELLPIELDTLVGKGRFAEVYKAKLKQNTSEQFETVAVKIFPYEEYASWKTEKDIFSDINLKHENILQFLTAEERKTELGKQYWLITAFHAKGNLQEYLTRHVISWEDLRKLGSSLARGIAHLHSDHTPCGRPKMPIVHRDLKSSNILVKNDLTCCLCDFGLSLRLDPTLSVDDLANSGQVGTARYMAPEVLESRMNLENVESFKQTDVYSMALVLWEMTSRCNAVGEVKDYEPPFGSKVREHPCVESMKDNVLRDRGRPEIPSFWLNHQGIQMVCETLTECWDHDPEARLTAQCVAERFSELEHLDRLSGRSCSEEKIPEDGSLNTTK

TSSK2 (human) = TSSK2 (human) (UniProt Q96PF2)
Sequence of TSSK2 (human) (Q96PF2 whole entry, looked up): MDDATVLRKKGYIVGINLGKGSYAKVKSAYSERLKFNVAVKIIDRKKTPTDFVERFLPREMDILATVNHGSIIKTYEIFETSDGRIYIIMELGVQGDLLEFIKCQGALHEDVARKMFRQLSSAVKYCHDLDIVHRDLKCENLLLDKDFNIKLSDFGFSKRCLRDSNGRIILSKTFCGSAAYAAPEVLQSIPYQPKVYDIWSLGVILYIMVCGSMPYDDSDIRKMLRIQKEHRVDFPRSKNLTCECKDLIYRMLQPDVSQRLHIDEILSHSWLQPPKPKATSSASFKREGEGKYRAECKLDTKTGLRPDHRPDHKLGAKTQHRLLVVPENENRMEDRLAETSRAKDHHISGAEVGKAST

ULK1 (human) = ULK1 (human) (UniProt O75385)
VRK1 (human) = VRK1 (human) (UniProt Q99986)
WEE1 (human) = WEE1 (human) (UniProt P30291)
Sequence of WEE1 (human) (P30291 whole entry, looked up): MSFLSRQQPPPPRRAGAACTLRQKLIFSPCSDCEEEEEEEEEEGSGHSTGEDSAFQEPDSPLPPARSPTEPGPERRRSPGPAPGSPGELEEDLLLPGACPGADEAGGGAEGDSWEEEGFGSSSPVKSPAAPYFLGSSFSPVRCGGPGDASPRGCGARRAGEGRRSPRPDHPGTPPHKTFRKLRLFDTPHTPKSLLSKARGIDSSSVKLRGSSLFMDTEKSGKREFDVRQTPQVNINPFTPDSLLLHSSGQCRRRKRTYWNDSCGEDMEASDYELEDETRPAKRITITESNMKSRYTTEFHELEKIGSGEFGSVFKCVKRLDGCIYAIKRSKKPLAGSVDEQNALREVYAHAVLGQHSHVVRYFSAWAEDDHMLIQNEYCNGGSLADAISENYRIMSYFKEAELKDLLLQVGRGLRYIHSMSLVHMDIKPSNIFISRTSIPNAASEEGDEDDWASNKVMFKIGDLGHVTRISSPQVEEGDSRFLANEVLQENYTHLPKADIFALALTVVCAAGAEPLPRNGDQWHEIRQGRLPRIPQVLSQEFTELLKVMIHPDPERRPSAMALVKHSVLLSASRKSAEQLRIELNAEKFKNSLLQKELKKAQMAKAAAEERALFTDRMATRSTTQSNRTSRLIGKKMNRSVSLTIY

WNK3 (human) = WNK3 (human) (UniProt Q9BYP7)

Sequence of CAMK1D (human) (Q8IU85 whole entry, looked up): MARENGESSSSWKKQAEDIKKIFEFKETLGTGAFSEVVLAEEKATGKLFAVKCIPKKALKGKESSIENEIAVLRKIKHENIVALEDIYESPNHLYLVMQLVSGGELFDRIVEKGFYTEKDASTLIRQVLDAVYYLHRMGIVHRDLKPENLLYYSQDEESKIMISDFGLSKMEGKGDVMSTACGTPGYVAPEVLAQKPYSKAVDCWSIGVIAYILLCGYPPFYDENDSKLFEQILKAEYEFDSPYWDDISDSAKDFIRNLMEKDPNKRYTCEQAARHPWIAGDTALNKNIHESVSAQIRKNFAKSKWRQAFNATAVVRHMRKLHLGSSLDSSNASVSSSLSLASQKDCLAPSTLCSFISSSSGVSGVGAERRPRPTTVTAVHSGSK
Sequence of CAMK1G (human) (Q96NX5 whole entry, looked up): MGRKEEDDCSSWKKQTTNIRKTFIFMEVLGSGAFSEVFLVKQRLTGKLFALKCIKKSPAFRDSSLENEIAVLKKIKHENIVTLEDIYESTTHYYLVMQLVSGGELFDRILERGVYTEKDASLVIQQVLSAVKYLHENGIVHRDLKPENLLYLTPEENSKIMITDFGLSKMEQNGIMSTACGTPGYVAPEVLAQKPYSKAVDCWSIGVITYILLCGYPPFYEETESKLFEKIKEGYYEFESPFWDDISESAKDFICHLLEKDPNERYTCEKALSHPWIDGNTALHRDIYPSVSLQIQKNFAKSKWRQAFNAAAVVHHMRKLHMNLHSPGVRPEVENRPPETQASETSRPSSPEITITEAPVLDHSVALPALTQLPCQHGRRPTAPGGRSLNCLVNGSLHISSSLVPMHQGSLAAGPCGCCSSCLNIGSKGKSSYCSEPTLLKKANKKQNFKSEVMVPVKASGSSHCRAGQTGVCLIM

## O=C(CCCc1ccc(-c2ccccc2F)cc1)Nc1ccc(O)cc1
CAMK1D (human)
  residual activity: 122%
CAMK1G (human)
  residual activity: 96.8%
CAMKK2 (human)
  residual activity: 86.6%
CDC42BPA (human)
  residual activity: 103%
CDK5 CDK5R1 p35 (human)
  residual activity: 92.5%
CSNK2A1 (human)
  residual activity: 89.4%
DAPK1 (human)
  residual activity: 110%
DYRK4 (human)
  residual activity: 97.4%
EPHA2 (human)
  residual activity: 101%
FGFR4 (human)
  residual activity: 106%
GRK7 (human)
  residual activity: 109%
HIPK2 (human)
  residual activity: 112%
LYN (human)
  residual activity: 102% and 87.7%
MAP2K1 (human)
  residual activity: 104%
MAPK12 (human)
  residual activity: 104%
MAPK3 (human)
  residual activity: 132%
MET (human)
  residual activity: 114%
MUSK (human)
  residual activity: 93.1%
NEK2 (human)
  residual activity: 90.6%
NEK3 (human)
  residual activity: 109%
NTRK1 (human)
  residual activity: 103%
PAK6 (human)
  residual activity: 108%
PASK (human)
  residual activity: 101%
PHKG1 (human)
  residual activity: 89.1%
PKN2 (human)
  residual activity: 89.8%
PLK3 (human)
  residual activity: 95%
PRKCE (human)
  residual activity: 103%
PRKD2 (human)
  residual activity: 97.6%
PTK6 (human)
  residual activity: 102%
RPS6KA3 KD1 KD2 (human)
  residual activity: 95.8%
SGK3 (human)
  residual activity: 106%
SIK2 (human)
  residual activity: 102%
SRC (human)
  residual activity: 93.7%
SRPK2 (human)
  residual activity: 94.3%
STK10 (human)
  residual activity: 95.3%
TBK1 (human)
  residual activity: 98.2%
TGFBR2 (human)
  residual activity: 101%
TSSK2 (human)
  residual activity: 115%
ULK1 (human)
  residual activity: 106%
VRK1 (human)
  residual activity: 95.5%
WEE1 (human)
  residual activity: 83.7%
WNK3 (human)
  residual activity: 109%

## COc1ccc(OC)c2c(=S)c3ccccc3[nH]c12
CAMK1D (human)
  residual activity: 104%
CAMK1G (human)
  residual activity: 99.5%
CAMKK2 (human)
  residual activity: 108%
CDC42BPA (human)
  residual activity: 82.7%
CDK5 CDK5R1 p35 (human)
  residual activity: 86.4%
CSNK2A1 (human)
  residual activity: 100%
DAPK1 (human)
  residual activity: 106%
DYRK4 (human)
  residual activity: 107%
EPHA2 (human)
  residual activity: 100%
FGFR4 (human)
  residual activity: 91.1%
GRK7 (human)
  residual activity: 102%
HIPK2 (human)
  residual activity: 98.3%
LYN (human)
  residual activity: 106% and 96.9%
MAP2K1 (human)
  residual activity: 91.7%
MAPK12 (human)
  residual activity: 98.1%
MAPK3 (human)
  residual activity: 103%
MET (human)
  residual activity: 99.2%
MUSK (human)
  residual activity: 87.3%
NEK3 (human)
  residual activity: 107%
NTRK1 (human)
  residual activity: 87.5%
PAK6 (human)
  residual activity: 112%
PASK (human)
  residual activity: 90.1%
PHKG1 (human)
  residual activity: 83%
PKN2 (human)
  residual activity: 105%
PLK3 (human)
  residual activity: 99.8%
PRKCE (human)
  residual activity: 93.3%
PRKD2 (human)
  residual activity: 88.1%
PTK6 (human)
  residual activity: 84%
RPS6KA3 KD1 KD2 (human)
  residual activity: 109%
SGK3 (human)
  residual activity: 90.7%
SIK2 (human)
  residual activity: 114%
SRC (human)
  residual activity: 90.6%
SRPK2 (human)
  residual activity: 95.1%
STK10 (human)
  residual activity: 93.6%
TBK1 (human)
  residual activity: 97.5%
TGFBR2 (human)
  residual activity: 109%
TSSK2 (human)
  residual activity: 108%
ULK1 (human)
  residual activity: 114%
VRK1 (human)
  residual activity: 100%
WEE1 (human)
  residual activity: 102%
WNK3 (human)
  residual activity: 99.1%

## O=C1NC(=O)C(c2c[nH]c3ccccc23)=C1c1c[nH]c2ccccc12
CAMK1D (human)
  residual activity: 106%
CAMK1G (human)
  residual activity: 99.5%
CAMKK2 (human)
  residual activity: 92.8%
CDC42BPA (human)
  residual activity: 89.9%
CDK5 CDK5R1 p35 (human)
  residual activity: 79.5%
CSNK2A1 (human)
  residual activity: 106%
DAPK1 (human)
  residual activity: 79.4%
DYRK4 (human)
  residual activity: 94.3%
EPHA2 (human)
  residual activity: 91.6%
FGFR4 (human)
  residual activity: 87.8%
GRK7 (human)
  residual activity: 91.8%
HIPK2 (human)
  residual activity: 104%
LYN (human)
  residual activity: 102% and 104%
MAP2K1 (human)
  residual activity: 95.8%
MAPK12 (human)
  residual activity: 93%
MAPK3 (human)
  residual activity: 105%
MUSK (human)
  residual activity: 76.4%
NEK2 (human)
  residual activity: 102%
NEK3 (human)
  residual activity: 88.2%
NTRK1 (human)
  residual activity: 92%
PAK6 (human)
  residual activity: 92.4%
PASK (human)
  residual activity: 90.8%
PHKG1 (human)
  residual activity: 74.9%
PKN2 (human)
  residual activity: 103%
PLK3 (human)
  residual activity: 99.9%
PRKCE (human)
  residual activity: 24%
PRKD2 (human)
  residual activity: 87.4%
PTK6 (human)
  residual activity: 84.6%
RPS6KA3 KD1 KD2 (human)
  residual activity: 46.7%
SGK3 (human)
  residual activity: 97.9%
SIK2 (human)
  residual activity: 102%
SRC (human)
  residual activity: 93.7%
SRPK2 (human)
  residual activity: 84.3%
STK10 (human)
  residual activity: 49.6%
TBK1 (human)
  residual activity: 84%
TGFBR2 (human)
  residual activity: 95.5%
TSSK2 (human)
  residual activity: 110%
ULK1 (human)
  residual activity: 105%
VRK1 (human)
  residual activity: 109%
WEE1 (human)
  residual activity: 98.1%
WNK3 (human)
  residual activity: 98.3%

## COc1cc2ncc(-c3ccccc3)nc2cc1OC
CAMK1D (human)
  residual activity: 96.6%
CAMK1G (human)
  residual activity: 95.1%
CAMKK2 (human)
  residual activity: 114%
CDC42BPA (human)
  residual activity: 85.4%
CDK5 CDK5R1 p35 (human)
  residual activity: 95.8%
DAPK1 (human)
  residual activity: 99.7%
DYRK4 (human)
  residual activity: 112%
EPHA2 (human)
  residual activity: 102%
FGFR4 (human)
  residual activity: 78.7%
GRK7 (human)
  residual activity: 105%
HIPK2 (human)
  residual activity: 78.7%
LYN (human)
  residual activity: 90.4% and 96.9%
MAP2K1 (human)
  residual activity: 97.6%
MAPK12 (human)
  residual activity: 95.5%
MAPK3 (human)
  residual activity: 97.6%
MET (human)
  residual activity: 92.6%
MUSK (human)
  residual activity: 95.9%
NEK2 (human)
  residual activity: 85.3%
NEK3 (human)
  residual activity: 90.5%
NTRK1 (human)
  residual activity: 93.2%
PAK6 (human)
  residual activity: 82.8%
PASK (human)
  residual activity: 98.9%
PHKG1 (human)
  residual activity: 92.4%
PKN2 (human)
  residual activity: 88.3%
PLK3 (human)
  residual activity: 98.3%
PRKCE (human)
  residual activity: 87.9%
PRKD2 (human)
  residual activity: 93.8%
PTK6 (human)
  residual activity: 80.8%
RPS6KA3 KD1 KD2 (human)
  residual activity: 101%
SGK3 (human)
  residual activity: 89.7%
SIK2 (human)
  residual activity: 93.1%
SRC (human)
  residual activity: 96.1%
SRPK2 (human)
  residual activity: 84.4%
STK10 (human)
  residual activity: 89.6%
TBK1 (human)
  residual activity: 87.2%
TGFBR2 (human)
  residual activity: 75%
TSSK2 (human)
  residual activity: 85.7%
ULK1 (human)
  residual activity: 84.5%
VRK1 (human)
  residual activity: 106%
WEE1 (human)
  residual activity: 82.8%
WNK3 (human)
  residual activity: 97.5%

## Nc1nnc2[nH]c3ccccc3nc1-2
CAMK1D (human)
  residual activity: 98.3%
CAMK1G (human)
  residual activity: 97.9%
CAMKK2 (human)
  residual activity: 98.8%
CDC42BPA (human)
  residual activity: 95.4%
CDK5 CDK5R1 p35 (human)
  residual activity: 88.7%
CSNK2A1 (human)
  residual activity: 87.6%
DAPK1 (human)
  residual activity: 91.5%
DYRK4 (human)
  residual activity: 89.2%
EPHA2 (human)
  residual activity: 98.5%
FGFR4 (human)
  residual activity: 94.9%
HIPK2 (human)
  residual activity: 95.9%
LYN (human)
  residual activity: 108% and 97%
MAP2K1 (human)
  residual activity: 98.8%
MAPK12 (human)
  residual activity: 100%
MAPK3 (human)
  residual activity: 113%
MET (human)
  residual activity: 90.1%
MUSK (human)
  residual activity: 82.6%
NEK2 (human)
  residual activity: 99.6%
NEK3 (human)
  residual activity: 94.9%
NTRK1 (human)
  residual activity: 88.3%
PAK6 (human)
  residual activity: 96.3%
PASK (human)
  residual activity: 93.7%
PHKG1 (human)
  residual activity: 86.9%
PKN2 (human)
  residual activity: 98.7%
PLK3 (human)
  residual activity: 96.3%
PRKCE (human)
  residual activity: 86.4%
PRKD2 (human)
  residual activity: 94.5%
PTK6 (human)
  residual activity: 84.1%
RPS6KA3 KD1 KD2 (human)
  residual activity: 88%
SGK3 (human)
  residual activity: 96.6%
SIK2 (human)
  residual activity: 102%
SRPK2 (human)
  residual activity: 95.9%
STK10 (human)
  residual activity: 94.6%
TBK1 (human)
  residual activity: 92%
TGFBR2 (human)
  residual activity: 82.4%
TSSK2 (human)
  residual activity: 110%
ULK1 (human)
  residual activity: 106%
VRK1 (human)
  residual activity: 103%
WEE1 (human)
  residual activity: 101%
WNK3 (human)
  residual activity: 98%
